Patent US20230181659A1, “PHAGE-MEDIATED DELIVERY OF GENES TO GUT MICROBIOME” (priority 2020, published 2023)

Assays:
Sm^R MG1655 E. coli = test: Selection of resistant E. coli subpopulation in mouse gut with β-lactam in drinking water; type: in vivo; details: mice on water containing streptomycin and ampicillin; gavaged 99.9% Amp^S / 0.1% Amp^R; within 1-2 days
Description: Mouse experiments with E. coli engraftment, antibiotic water, and phage treatment. Animal procedures were approved by the University of California, San Francisco (UCSF) Institutional Animal Care and Use Committee (IACUC), and animal experiments performed were in compliance with ethical regulations. Specific pathogen free female BALB/c mice from the vendor Taconic were used for all mouse experiments. Streptomycin water was prepared by dissolving USP grade streptomycin sulfate (VWR 0382) in autoclaved tap water to a final concentration of 5 mg/ml and passing through 0.45 μm filtration units. Mice were provided streptomycin water for 1 day, followed by oral gavage of 0.2 ml containing approximately 10^9 CFU of streptomycin-resistant E. coli. Mice were kept on streptomycin water thereafter to maintain colonization. For selection with β-lactam antibiotics, USP grade ampicillin sodium salt (Teknova A9510) or USP grade carbenicillin disodium salt (Teknova C2110) was also dissolved in the water to a final concentration of 1 mg/ml; carbenicillin was preferred for its increased stability over ampicillin (Bobrowski, M. & Borowski, E. et al., Microbiology, 68, 263-272 (1971)). Drinking water containing streptomycin was prepared fresh weekly; with the addition of a β-lactam antibiotic, it was prepared fresh every 3-4 days. […]

[1] = test system: Sm^R E. coli MG1655 or W1655 F+; test: Eradication of sensitive E. coli colonizing the mouse gut by carbenicillin water; type: in vivo
Description: Mouse experiments with E. coli engraftment, antibiotic water, and phage treatment. Animal procedures were approved by the University of California, San Francisco (UCSF) Institutional Animal Care and Use Committee (IACUC), and animal experiments performed were in compliance with ethical regulations. Specific pathogen free female BALB/c mice from the vendor Taconic were used for all mouse experiments. Streptomycin water was prepared by dissolving USP grade streptomycin sulfate (VWR 0382) in autoclaved tap water to a final concentration of 5 mg/ml and passing through 0.45 μm filtration units. Mice were provided streptomycin water for 1 day, followed by oral gavage of 0.2 ml containing approximately 10^9 CFU of streptomycin-resistant E. coli. Mice were kept on streptomycin water thereafter to maintain colonization. For selection with β-lactam antibiotics, USP grade ampicillin sodium salt (Teknova A9510) or USP grade carbenicillin disodium salt (Teknova C2110) was also dissolved in the water to a final concentration of 1 mg/ml; carbenicillin was preferred for its increased stability over ampicillin (Bobrowski, M. & Borowski, E. et al., Microbiology, 68, 263-272 (1971)). Drinking water containing streptomycin was prepared fresh weekly; with the addition of a β-lactam antibiotic, it was prepared fresh every 3-4 days. For phage treatment, filtered phage solutions stored at −80° C. were thawed and used directly for oral gavage. Unfiltered phage solutions were precipitated by diluting approximately 5-fold in PBS, adding 0.2 volumes phage precipitation solution (20% PEG-8000, 2.5 M NaCl), incubating for 15 min on ice, pelleting at 15,000-21,000 g for 15 min at 4° C., resuspending in PBS, centrifuging to pellet insoluble matter, and filtering through 0.45 μm. Heat-inactivated phage were prepared by incubating 1 ml aliquots at 95° C. in a water bath for 30 min. Streptomycin-treated mice colonized with Sm^R E. coli were orally gavaged with 0.2 ml of phage and placed on drinking water containing both streptomycin and carbenicillin.
Enumeration and culture of E. coli from mouse feces. […]

[2] = Carbenicillin bioassay of culture supernatants; details: co-cultures expressing β-lactamase; 4 hours of growth; detection limit approximately 2.5 μg/ml
Description: Carbenicillin bioassay. Cultures were sampled over time, cells were pelleted at 21,000 g for 1 min, and the supernatant was transferred to a new tube and frozen at −20° C. until all timepoints were collected. The supernatants were thawed and assayed using a Kirby-Bauer disk diffusion test. An overnight culture of the indicator organism (Bacillus subtilis 168) was diluted in saline to an OD600 of 0.1. A cotton swab was dipped into this dilution and spread across LB agar, antibiotic sensitivity disks (Fisher Scientific S70150A) were overlaid using tweezers, and 20 μl of the supernatant was applied to the disk. At the same time, carbenicillin standards were prepared from 1 μg/ml to 100 μg/ml and also applied to discs. Plates were incubated overnight at 37° C. and imaged the following morning.

gut microbiota = test: 16S rRNA gene sequencing of streptomycin-treated mice; type: in vivo; details: streptomycin water 5 mg/ml
Description: 16S rRNA gene sequencing. Mouse fecal pellets were stored at −80° C. DNA was extracted from single pellets using a ZymoBIOMICS 96 MagBead DNA Kit and 16S rRNA gene sequencing was performed using a dual indexing strategy (Gohl, D. M. et al., Nat. Biotechnol. 34, 942-949 (2016)). Briefly, a 22-cycle primary PCR was performed using KAPA HiFi Hot Start DNA polymerase (KAPA KK2502) and V4 515F/806R Nextera primers. The reaction was diluted in UltraPure DNase/RNase-free water (Life Tech 0977-023) and used as template for a 10-cycle secondary (indexing) PCR using sample-specific dual indexing primers. […] The DNA was gel extracted using a MinElute Gel Extraction Kit (Qiagen 28604), quantified by qPCR using a KAPA Library Quantification Kit for Illumina Platforms (KAPA KK4824), and paired-end sequenced on the Illumina MiSeq platform. Data were processed using a 16S rRNA gene analysis pipeline (https://github.com/jbisanz/AmpliconSeq) based on QIIME2 (Bolyen, E. et al., Nat. Biotechnol. 37, 852-857 (2019)) incorporating DADA2 (Callahan, B. J. et al., Nat. Methods, 13, 581-583 (2016).), and analyzed using R packages qiime2R v0.99.23 (https://github.com/jbisanz/qiime2R), phyloseq v1.33.0 (McMurdie, P. J. & Holmes, S., PLoS One, 8, e61217 (2013)), and phylosmith v1.0.4 (Smith, S. D., Journal of Open Source Software 4, 1442 (2019)). […]

CC1(C)S[C@@H]2[C@H](NC(=O)[C@H](N)c3ccccc3)C(=O)N2[C@H]1C(=O)O [ampicillin]
increase in the percent of Amp^R E. coli in feces (Sm^R MG1655 E. coli): 3 orders of magnitude

CC1(C)S[C@@H]2[C@H](NC(=O)C(C(=O)O)c3ccccc3)C(=O)N2[C@H]1C(=O)O (stereo partly drawn) [carbenicillin]
E. coli colonization level over the course of treatment ([1]; all mice, below limit of detection): < 10^2 CFU/g | mice with recolonization when selection was lifted ([1]; carbenicillin removed on Day 7): 5/6 | median E. coli colonization level ([1]; first day of carbenicillin in water, decreased from 9.6×10^9): 2.0×10^3 CFU/gram feces | carbenicillin in culture supernatants [2]: not detectable

[H]/N=C(/N)N[C@H]1[C@H](O)[C@@H](O)[C@H](O[C@@H]2O[C@@H](C)[C@](O)(C=O)[C@H]2O[C@@H]2O[C@@H](CO)[C@H](O)[C@@H](O)[C@@H]2NC)[C@@H](N/C(N)=N\[H])[C@@H]1O [streptomycin]
effect on gut microbial community (gut microbiota): altered gut microbial community structure while decreasing diversity and colonization level
